Measured values published in US10745355B2, “Anti-cancer compounds” (THE UNIVERSITY OF SYDNEY, priority 2015, dated 2020).

Key:
[1] = test system: U87; assay: Alamar blue cell viability assay, U87 cells; type: cell-based; conditions: Homo sapiens, U-87 MG; 72 hours of treatment; mean±SEM, three independent experiments
Procedure: (§1) U87 and U251 cell lines were obtained from the European Collection of Cell Cultures (ECACC) through CellBank Australia. U87-EGFRvIII cell line was obtained from their lab of origin (Nishikawa et al., 1994, Proc Natl Acad Sci USA 91: 7727-7731) and tested for EGFR amplification and mutation by immunoblotting and flow cytometry. Cells were cultured in DMEM medium (Invitrogen by Life Technologies, Carlsbad, Calif., USA) supplemented with 10% FBS (Sigma-Aldrich) at 37° C. and 5% CO2. Primary gliomaspheres (RN1, classical; WK1, mesenchymal) were derived from glioblastoma specimens (Day et al., 2013, Cancers 5: 357-371; Day et al., 2013, Cancer Cell 23: 238-248), maintained in StemPro NSC serum-free media supplemented with EGF and FGF (all Life Technologies), and grown on matrigel-coated flasks (Pollard et al., 2009, Cell Stem Cell 4: 568-580).
(§2) Cell viability was determined using Alamar blue assay after 72 hours of treatment (Table 2). EC50 values were calculated using non-linear regression on Graph Pad Prism version 5. c Log P values calculated using ChemBioDraw Software. Results are mean±SEM from three independent experiments performed in triplicates.

[2] = molecular target: ALK (Homo sapiens, UniProt Q9UM73); assay: Kinase profiling (ProQinase 33PanQinase Activity Assay), ALK; type: biochemical; conditions: read-out: residual activity, ALK
Procedure: (§3) The kinase profiling of compound 1-08 at 10 and 50 μM was performed by ProQinase GmbH (Freiburg, Germany). A radiometric protein kinase assay (^33PanQinase® Activity Assay) and the non-radiometric ADP-Glo™ Assay (Promega, Madison, Wis., USA) were used for measuring kinase activity of 387 protein kinases and 13 lipid kinases, respectively. The results are shown in Table 3 (only the top 10 kinases are listed, and the selectivity score describes the portion of kinases inhibited more than 50% in relation to all tested kinases).

[3] = test system: U87vIII; assay: Alamar blue cell viability assay, U87vIII cells; type: cell-based; conditions: 72 hours of treatment; mean±SEM, three independent experiments
Procedure: as §1, §2

[4] = molecular target: T1, EPHB1 (Homo sapiens, UniProt P54762); assay: Kinase profiling (ProQinase 33PanQinase Activity Assay), EPHB1; type: biochemical; conditions: read-out: residual activity, EPHB1
T1 sequence (P54762 18-984): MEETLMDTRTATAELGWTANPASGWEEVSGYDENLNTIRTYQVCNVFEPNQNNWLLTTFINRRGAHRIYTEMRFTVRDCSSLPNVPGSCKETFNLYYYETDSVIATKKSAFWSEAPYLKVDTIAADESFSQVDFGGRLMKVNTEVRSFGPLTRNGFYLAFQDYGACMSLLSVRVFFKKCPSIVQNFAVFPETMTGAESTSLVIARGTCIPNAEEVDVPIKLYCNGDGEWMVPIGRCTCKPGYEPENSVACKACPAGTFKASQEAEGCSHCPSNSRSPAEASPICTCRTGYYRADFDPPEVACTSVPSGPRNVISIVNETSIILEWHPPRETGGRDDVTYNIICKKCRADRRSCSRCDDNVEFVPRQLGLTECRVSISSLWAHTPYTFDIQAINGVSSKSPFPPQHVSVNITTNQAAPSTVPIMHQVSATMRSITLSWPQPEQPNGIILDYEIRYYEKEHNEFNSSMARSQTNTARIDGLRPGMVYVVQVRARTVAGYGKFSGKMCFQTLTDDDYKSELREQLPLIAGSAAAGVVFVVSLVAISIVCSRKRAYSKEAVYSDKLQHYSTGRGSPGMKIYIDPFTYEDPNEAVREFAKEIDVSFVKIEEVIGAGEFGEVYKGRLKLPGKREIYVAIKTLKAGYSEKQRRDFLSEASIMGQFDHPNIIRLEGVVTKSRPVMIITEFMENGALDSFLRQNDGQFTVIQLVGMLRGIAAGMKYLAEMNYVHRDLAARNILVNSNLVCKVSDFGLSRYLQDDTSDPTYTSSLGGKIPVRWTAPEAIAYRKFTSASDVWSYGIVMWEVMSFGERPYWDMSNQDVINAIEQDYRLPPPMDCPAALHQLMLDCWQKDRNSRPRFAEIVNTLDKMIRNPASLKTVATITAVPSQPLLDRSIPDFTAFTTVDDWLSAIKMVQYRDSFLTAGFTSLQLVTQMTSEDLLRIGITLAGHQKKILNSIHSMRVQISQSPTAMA
Procedure: as §3

[5] = molecular target: LYN (Homo sapiens, UniProt P07948); assay: Kinase profiling (ProQinase 33PanQinase Activity Assay), LYN; type: biochemical; conditions: read-out: residual activity, LYN
Procedure: as §3

[6] = molecular target: IGF1R (Homo sapiens, UniProt P08069); assay: Kinase profiling (ProQinase 33PanQinase Activity Assay), IGF1R; type: biochemical; conditions: read-out: residual activity, IGF1R
Procedure: as §3

LYN, sequence (P07948 whole entry): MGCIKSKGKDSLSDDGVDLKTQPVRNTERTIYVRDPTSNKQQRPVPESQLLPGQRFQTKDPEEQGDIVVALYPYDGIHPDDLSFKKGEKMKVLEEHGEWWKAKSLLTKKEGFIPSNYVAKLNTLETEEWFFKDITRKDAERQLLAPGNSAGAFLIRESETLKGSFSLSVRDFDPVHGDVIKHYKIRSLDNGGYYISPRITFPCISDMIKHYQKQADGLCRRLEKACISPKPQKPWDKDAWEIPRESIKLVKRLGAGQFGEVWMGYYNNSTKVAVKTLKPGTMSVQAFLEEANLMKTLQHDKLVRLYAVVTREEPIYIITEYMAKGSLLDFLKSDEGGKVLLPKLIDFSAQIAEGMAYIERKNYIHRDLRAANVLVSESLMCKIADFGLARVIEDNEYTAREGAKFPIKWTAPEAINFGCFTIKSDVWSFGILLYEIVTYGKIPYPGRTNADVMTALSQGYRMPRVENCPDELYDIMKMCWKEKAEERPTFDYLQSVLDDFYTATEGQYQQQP
ALK, sequence (Q9UM73 19-1620): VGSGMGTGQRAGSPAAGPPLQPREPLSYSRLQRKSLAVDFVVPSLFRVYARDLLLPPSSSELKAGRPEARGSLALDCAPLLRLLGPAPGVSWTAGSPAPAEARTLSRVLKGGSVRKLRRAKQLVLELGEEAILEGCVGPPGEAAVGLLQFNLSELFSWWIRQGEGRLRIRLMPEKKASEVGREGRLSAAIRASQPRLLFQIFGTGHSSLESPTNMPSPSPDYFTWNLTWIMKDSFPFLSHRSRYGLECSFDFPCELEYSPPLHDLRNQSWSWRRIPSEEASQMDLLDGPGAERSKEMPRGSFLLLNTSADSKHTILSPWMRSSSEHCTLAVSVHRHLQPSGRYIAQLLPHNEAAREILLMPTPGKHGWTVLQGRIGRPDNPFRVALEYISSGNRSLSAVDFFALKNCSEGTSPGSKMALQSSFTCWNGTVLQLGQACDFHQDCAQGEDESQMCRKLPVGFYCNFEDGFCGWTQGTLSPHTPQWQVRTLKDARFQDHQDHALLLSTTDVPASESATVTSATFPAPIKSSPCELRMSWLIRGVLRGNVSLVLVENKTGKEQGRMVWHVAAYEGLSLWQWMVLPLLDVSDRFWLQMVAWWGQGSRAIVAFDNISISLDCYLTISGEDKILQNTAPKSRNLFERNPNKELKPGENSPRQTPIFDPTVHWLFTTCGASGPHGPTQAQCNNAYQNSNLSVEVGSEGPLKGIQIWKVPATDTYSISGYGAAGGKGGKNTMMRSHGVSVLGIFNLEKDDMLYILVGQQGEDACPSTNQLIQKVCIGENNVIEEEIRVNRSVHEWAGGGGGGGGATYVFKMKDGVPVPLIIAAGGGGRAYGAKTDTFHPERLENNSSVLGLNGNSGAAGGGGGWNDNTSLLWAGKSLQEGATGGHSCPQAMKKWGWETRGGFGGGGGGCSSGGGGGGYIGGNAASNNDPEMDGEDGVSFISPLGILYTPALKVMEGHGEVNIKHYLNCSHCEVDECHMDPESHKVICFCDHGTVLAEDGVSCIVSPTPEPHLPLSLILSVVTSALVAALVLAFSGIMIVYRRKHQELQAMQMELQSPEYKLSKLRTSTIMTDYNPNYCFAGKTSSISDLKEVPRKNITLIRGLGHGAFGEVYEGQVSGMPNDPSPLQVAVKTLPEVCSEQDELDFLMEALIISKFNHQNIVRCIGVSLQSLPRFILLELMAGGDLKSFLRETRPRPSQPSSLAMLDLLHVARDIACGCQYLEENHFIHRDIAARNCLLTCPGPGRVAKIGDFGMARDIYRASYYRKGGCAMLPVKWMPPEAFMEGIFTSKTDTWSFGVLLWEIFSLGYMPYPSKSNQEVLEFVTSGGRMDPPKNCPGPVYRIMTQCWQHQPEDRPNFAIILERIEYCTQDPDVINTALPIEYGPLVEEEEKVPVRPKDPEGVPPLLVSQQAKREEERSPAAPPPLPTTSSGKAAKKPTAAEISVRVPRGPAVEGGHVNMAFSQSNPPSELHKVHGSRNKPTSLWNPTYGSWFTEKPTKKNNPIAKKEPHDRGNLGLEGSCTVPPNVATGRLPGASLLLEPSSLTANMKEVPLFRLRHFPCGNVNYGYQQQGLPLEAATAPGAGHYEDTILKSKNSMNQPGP
IGF1R, sequence (P08069 31-1367): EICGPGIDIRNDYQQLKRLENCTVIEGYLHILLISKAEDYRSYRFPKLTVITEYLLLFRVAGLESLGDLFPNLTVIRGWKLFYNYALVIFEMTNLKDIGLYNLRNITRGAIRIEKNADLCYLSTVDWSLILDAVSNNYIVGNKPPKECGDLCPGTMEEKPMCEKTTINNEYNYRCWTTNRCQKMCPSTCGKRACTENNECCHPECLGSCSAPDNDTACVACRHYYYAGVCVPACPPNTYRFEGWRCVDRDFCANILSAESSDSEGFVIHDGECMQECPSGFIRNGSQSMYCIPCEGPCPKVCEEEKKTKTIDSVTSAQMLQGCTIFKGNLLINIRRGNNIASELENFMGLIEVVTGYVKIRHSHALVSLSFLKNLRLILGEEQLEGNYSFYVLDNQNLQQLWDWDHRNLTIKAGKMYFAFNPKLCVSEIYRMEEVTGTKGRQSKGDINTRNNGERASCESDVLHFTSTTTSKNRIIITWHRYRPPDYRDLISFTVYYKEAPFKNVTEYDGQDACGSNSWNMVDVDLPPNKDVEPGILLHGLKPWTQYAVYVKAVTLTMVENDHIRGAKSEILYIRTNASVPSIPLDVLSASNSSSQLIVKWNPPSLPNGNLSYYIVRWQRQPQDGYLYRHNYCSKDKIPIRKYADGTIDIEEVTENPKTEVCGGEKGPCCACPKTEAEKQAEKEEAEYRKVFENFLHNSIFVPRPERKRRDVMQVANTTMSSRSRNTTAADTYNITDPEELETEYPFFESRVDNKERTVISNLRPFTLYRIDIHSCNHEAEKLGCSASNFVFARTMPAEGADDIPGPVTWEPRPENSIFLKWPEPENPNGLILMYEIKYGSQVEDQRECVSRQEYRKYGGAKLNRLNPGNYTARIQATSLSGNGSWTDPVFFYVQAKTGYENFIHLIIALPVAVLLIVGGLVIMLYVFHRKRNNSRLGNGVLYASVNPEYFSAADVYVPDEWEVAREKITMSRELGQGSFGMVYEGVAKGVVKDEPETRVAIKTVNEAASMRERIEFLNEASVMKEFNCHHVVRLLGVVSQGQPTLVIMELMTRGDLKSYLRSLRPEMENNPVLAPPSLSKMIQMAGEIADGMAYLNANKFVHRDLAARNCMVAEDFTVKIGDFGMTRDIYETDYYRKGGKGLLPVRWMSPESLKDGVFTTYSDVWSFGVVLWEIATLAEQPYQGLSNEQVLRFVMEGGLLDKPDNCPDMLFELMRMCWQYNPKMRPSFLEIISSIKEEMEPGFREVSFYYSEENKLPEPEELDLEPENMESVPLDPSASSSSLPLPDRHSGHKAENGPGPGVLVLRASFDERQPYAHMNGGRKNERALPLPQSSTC

EC50 [1]: 650 ± 300 nM
remaining activity at 10 µM ([2]; 10 μM compound): 76%
remaining activity at 50 µM ([2]; 50 μM compound): 21%
EC50 [3]: 1300 ± 400 nM
remaining activity at 10 µM ([4]; 10 μM compound): 57%
remaining activity at 50 µM ([4]; 50 μM compound): 20%
remaining activity at 10 µM ([5]; 10 μM compound): 87%
remaining activity at 50 µM ([5]; 50 μM compound): 21%
remaining activity at 10 µM ([6]; 10 μM compound): 73%
remaining activity at 50 µM ([6]; 50 μM compound): 15%
SMILES: O=C(CCCc1ccc(-c2cnc3ccccc3c2)cc1)Nc1ccc(O)cc1 [Compound 1-08, N-(4-hydroxyphenyl)-4-(4-(quinolin-3-yl)phenyl)butanamide]
